Laboratory results: patent US20260217701A1, “SELECTIVE BET INHIBITORS AND USES THEREOF” (Tay Therapeutics Limited, priority 2022, published 2026)
Like-named read-outs stand apart in the source and are kept apart here.

Assay: Dog PK study #3 (Compound A PO once daily 5 days, 5/10/20 mg/kg; PK, body weight, hematology)
Type: in vivo, beagle dogs
Conditions: for Tmax / AUC(0-inf) / Cmax / MRT inf / MRT last / half-life / AUC(0-t): male, beagle, dog, plasma, po; for AUC(0-inf): read-out: AUC0-inf; for Cmax: read-out: Cmax; for MRT inf: read-out: MRT0-inf; for MRT last: read-out: MRT0-last; for half-life: read-out: T½ (converted)
Procedure: For the third dog pharmacokinetic study, three solutions of different concentrations of Compound A were prepared in 5% DMSO/15% PEG-400/80% (10% VE-TPGS) as outlined in Table 2E. The Compound A solutions were administered to animals orally (PO) once daily over a five-day period. Body weight was recorded prior to dosing, and detailed clinical observations were made prior to dosing and throughout the study, as needed.
Animals were divided into Day 1 and Day 5 sample collection groups, with animals in the Day 1 collection group having blood samples taken prior to dosing and at 0.25, 0.5, 1, 2, 4, 8, and 24 hours after dosing on day 1. Animals in the Day 5 collection group having blood samples taken prior to dosing and at 0.25, 0.5, 1, 2, 4, 8, and 24 hours after dosing on day 5. Study groups are outlined in Table 3D.
Blood samples (~0.3 mL) were collected on day according to the following schedule (0.25, 0.5, 1, 2, 4, 8, and 24 h) after day 5 administration of Compound A by venipuncture of peripheral veins except for the dosing vein, and EDTA-K2 was used as anticoagulant. Within 30 minutes of collection, the samples were centrifuged at approximately 2000 times g-force for 10 minutes at 4° C. to obtain blood plasma. The plasma samples were immediately divided into two aliquots (~75 μL each), transferred to a cryogenic vial, and stored in a freezer at −75±15° C. prior to analysis.
The concentration of Compound A in the blood plasma was determined through LC-MS as previously described. Briefly, the experiments were conducted on a DMPK-LCMS-14-SMBA Triple Quad 6500 Plus instrument with an ACQUITY UPLC BEH C18 1.7 μm (50×2.1 mm) column. The matrix was male beagle dog plasma potassium (K2) EDTA A gradient of 95% water (0.1% formic acid and 2 mM HCOONH4)/95% acetonitrile (0.1% formic acid and 2 mM HCOONH4) was used as the mobile phase. The sample flow rate was 0.6 mL/min.
The samples were then vortex-mixed for 10 minutes at 800 rpm and centrifuged for 15 minutes at 3220×g at 4° C. 50 μL aliquots of supernatant were transferred to a clean 96-well plate and centrifuged for 5 minutes at 3220×g at 4° C. Samples were then injected into the LC/MS/MS system for quantitative analysis.
The gathered data were used for pharmacokinetic calculations using T1/2, CO, AUClast, AUCinf, MRTinf, Cl, Vss, and Number of Points for Regression as parameters.
The cell composition (hematology) of blood samples was analyzed at day 5. Analyses identified the total number of white blood cells, neutrophils, lymphocytes, monocytes, eosinophils, basophils, and platelets in collected samples.

[1] = 5 mg/kg, Day 1, 5 mg/kg dose PO, individual animals
[2] = 5 mg/kg, Day 1, 5 mg/kg dose PO, mean
[3] = 5 mg/kg, Day 5, 5 mg/kg dose PO, individual animals
[4] = 5 mg/kg, Day 5, 5 mg/kg dose PO, mean
[5] = 10 mg/kg, Day 1, 10 mg/kg dose PO, individual animals
[6] = 10 mg/kg, Day 1, 10 mg/kg dose PO, mean
[7] = 10 mg/kg, Day 5, 10 mg/kg dose PO, individual animals
[8] = 10 mg/kg, Day 5, 10 mg/kg dose PO, mean
[9] = 20 mg/kg, Day 1, 20 mg/kg dose PO, individual animals
[10] = 20 mg/kg, Day 1, 20 mg/kg dose PO, mean
[11] = 20 mg/kg, Day 5, 20 mg/kg dose PO, individual animals
[12] = 20 mg/kg, Day 5, 20 mg/kg dose PO, mean
[13] = single PO administration Day 1, 10.0 over 5.00 mg/kg, dose ratio 2.00
[14] = single PO administration Day 1, 20.0 over 5.00 mg/kg, dose ratio 4.00
[15] = single PO administration Day 1, 20.0 over 10.0 mg/kg, dose ratio 2.00

Cn1cc(-c2ccccc2)c(-c2cn(C)c(=O)c3[nH]c(-c4cnn(C(F)(F)F)c4)cc23)cc1=O [Compound A, 6-methyl-4-(1-methyl-2-oxo-5-phenyl-1,2-dihydropyridin-4-yl)-2-(1-(trifluoromethyl)-1H-pyrazol-4-yl)-1,6-dihydro-7H-pyrrolo[2,3-c]pyridin-7-one]
Tmax [1]: 8 h
AUC(0-inf) [1]: 7.88 µg·h/mL
Cmax [1]: 785 ng/mL
MRT inf [1]: 9.3 h
MRT last [1]: 9.77 h
half-life [1]: 5.63 h
AUC(0-t) [2]: 9.5 µg·h/mL
Tmax [2]: 6 h
Cmax [2]: 736 ng/mL
MRT last [2]: 8.8 h
AUC(0-t) [3]: 17.8 µg·h/mL
Tmax [3]: 2 h
Cmax [3]: 1270 ng/mL
MRT inf [3]: 20 h
MRT last [3]: 9.78 h
AUC(0-t) [4]: 14.5 µg·h/mL
Tmax [4]: 2 h
AUC(0-inf) [4]: 18.9 µg·h/mL
Cmax [4]: 1160 ng/mL
MRT inf [4]: 15.1 h
MRT last [4]: 8.93 h
half-life [4]: 9.96 h
AUC(0-t) [5]: 19.5 µg·h/mL
Tmax [5]: 4 h
AUC(0-inf) [5]: 20.5 µg·h/mL
Cmax [5]: 2010 ng/mL
MRT inf [5]: 8.8 h
MRT last [5]: 7.59 h
half-life [5]: 5.24 h
AUC(0-t) [6]: 17.5 µg·h/mL
Tmax [6]: 3 h
AUC(0-inf) [6]: 18.6 µg·h/mL
Cmax [6]: 1730 ng/mL
MRT inf [6]: 9.17 h
MRT last [6]: 7.72 h
half-life [6]: 5.6 h
AUC(0-t) [7]: 20.5 µg·h/mL
Tmax [7]: 2 h
AUC(0-inf) [7]: 23 µg·h/mL
Cmax [7]: 1740 ng/mL
MRT inf [7]: 11.3 h
MRT last [7]: 8.5 h
half-life [7]: 7.3 h
AUC(0-t) [8]: 28.3 µg·h/mL
Tmax [8]: 2 h
AUC(0-inf) [8]: 34.1 µg·h/mL
Cmax [8]: 2260 ng/mL
MRT inf [8]: 13.4 h
MRT last [8]: 8.95 h
half-life [8]: 8.8 h
AUC(0-t) [9]: 49.4 µg·h/mL
Tmax [9]: 4 h
Cmax [9]: 4330 ng/mL
MRT inf [9]: 9.65 h
MRT last [9]: 8.19 h
AUC(0-t) [10]: 67.9 µg·h/mL
Tmax [10]: 4 h
AUC(0-inf) [10]: 84.7 µg·h/mL
Cmax [10]: 5160 ng/mL
MRT inf [10]: 13.9 h
MRT last [10]: 9.15 h
half-life [10]: 8.67 h
Tmax [11]: 2 h
Cmax [11]: 3510 ng/mL
AUC(0-t) [12]: 30.2 µg·h/mL
Tmax [12]: 2 h
AUC(0-inf) [12]: 1070 µg·h/mL
Cmax [12]: 2860 ng/mL
MRT inf [12]: 483 h
MRT last [12]: 6.3 h
half-life [12]: 334 h
mortality (one animal of the highest dose, 5 day PO study): found dead on day 6
AUC0-last Ratio (dose proportionality) [13]: 1.85
Cmax Ratio (dose proportionality) [13]: 2.35
AUC0-last Ratio (dose proportionality) [14]: 7.15
Cmax Ratio (dose proportionality) [14]: 7.02
AUC0-last Ratio (dose proportionality) [15]: 3.87
Cmax Ratio (dose proportionality) [15]: 2.99
